The results in this text go back to US8563542B2 (Cyclacel Limited, priority 2007, dated 2013).

The assay addresses T1, AA (Homo sapiens, UniProt O14965).
T1 sequence (O14965 1-403): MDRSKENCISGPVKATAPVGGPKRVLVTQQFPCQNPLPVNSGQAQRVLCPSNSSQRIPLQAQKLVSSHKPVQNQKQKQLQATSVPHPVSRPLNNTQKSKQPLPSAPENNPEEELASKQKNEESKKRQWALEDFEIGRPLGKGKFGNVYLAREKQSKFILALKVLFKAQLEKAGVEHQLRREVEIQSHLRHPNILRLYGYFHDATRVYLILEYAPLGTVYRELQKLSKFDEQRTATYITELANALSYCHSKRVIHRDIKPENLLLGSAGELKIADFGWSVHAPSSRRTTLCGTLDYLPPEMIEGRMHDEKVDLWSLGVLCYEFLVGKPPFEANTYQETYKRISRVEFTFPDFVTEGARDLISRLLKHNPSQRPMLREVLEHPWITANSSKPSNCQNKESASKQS
Kind of assay: AA IC50 (Table 1; no method given). It counts as biochemical. The conditions noted are these: Table 2, AurA IC50; class symbols; read-out: AurA IC50.

Turning to `CN1C(=O)CCN(C(C)(C)C)c2nc(Nc3ccc4c(c3)CS(=O)(=O)C4)ncc21` [compound 121, 9-tert-Butyl-2-(2,2-dioxo-2,3-dihydro-1H-2lambda*6*-benzo[c]thiophen-5-ylamino)-5-methyl-5,7,8,9-tetrahydro-pyrimido[4,5-b][1,4]diazepin-6-one], the concentration for half-maximal inhibition (IC50) was under 1000 nM. The same measure for `CCN1C(=O)CCN(C(C)(C)C)c2nc(Nc3ccc4c(c3)CS(=O)(=O)C4)ncc21` [compound 122, 9-tert-Butyl-2-(2,2-dioxo-2,3-dihydro-1H-2lambda*6*-benzo[c]thiophen-5-ylamino)-5-ethyl-5,7,8,9-tetrahydro-pyrimido[4,5-b][1,4]diazepin-6-one]: under 1000 nM; for `CCN1C(=O)CCNc2nc(Nc3ccc4c(c3)CS(=O)(=O)C4)ncc21` [compound 126, 2-(2,2-Dioxo-2,3-dihydro-1H-2lambda*6*- benzo[c]thiophen-5-ylamino)-5-ethyl-5,7,8,9-tetrahydro-pyrimido[4,5-b][1,4]diazepin-6-one]: under 10000 nM.

Take `COc1ccccc1N1CCC(=O)N(C)c2cnc(Nc3ccc4c(c3)CS(=O)(=O)C4)nc21` [compound 133, 2-(2,2-Dioxo-2,3-dihydro-1H-2lambda*6*- benzo[c]thiophen-5-ylamino)-9-(2-methoxy-phenyl)-5-methyl-5,7,8,9-tetrahydro-pyrimido[4,5-b][1,4]diazepin-6-one]: the IC50 was under 1000 nM.

For the molecule `Cc1ccccc1N1CCC(=O)N(C)c2cnc(Nc3ccc4c(c3)CS(=O)(=O)C4)nc21` [compound 134, 2-(2,2-Dioxo-2,3-dihydro-1H-2lambda*6*- benzo[c]thiophen-5-ylamino)-5-methyl-9-o-tolyl-5,7,8,9-tetrahydro-pyrimido[4,5-b][1,4]diazepin-6-one], the IC50 is under 1000 nM.

`CN1C(=O)CCN(c2ccccc2Cl)c2nc(Nc3ccc4c(c3)CS(=O)(=O)C4)ncc21` [compound 135, 9-(2-Chloro-phenyl)-2-(2,2-dioxo-2,3-dihydro-1H-2lambda*6*-benzo[c]thiophen-5-ylamino)-5-methyl-5,7,8,9-tetrahydro-pyrimido[4,5-b][1,4]diazepin-6-one]: the half-inhibitory concentration (IC50) was under 1000 nM. Under `COc1cccc(N2CCC(=O)N(C)c3cnc(Nc4ccc5c(c4)CS(=O)(=O)C5)nc32)c1` [compound 136, 2-(2,2-Dioxo-2,3-dihydro-1H-2lambda*6*- benzo[c]thiophen-5-ylamino)-9-(3-methoxy-phenyl)-5-methyl-5,7,8,9-tetrahydro-pyrimido[4,5-b][1,4]diazepin-6-one] stands under 1000 nM. Under `CC(Cc1c[nH]c2ccccc12)Nc1ncc2c(n1)N(C1CCCC1)CCC(=O)N2C` (centres unmarked) [compound 175, 9-Cyclopentyl-2-[2-(1H-indo1-3-yl)-1-methyl-ethylamino]-5-methyl-5,7,8,9-tetrahydro-pyrimido[4,5-b][1,4]diazepin-6-one] stands under 10000 nM. The same measure for `COc1ccc(N2CCN(c3ncc4c(n3)N(C3CCCC3)CCC(=O)N4C)CC2)cc1` [compound 213, 9-Cyclopentyl-2-[4-(4-methoxy-phenyl)-piperazin-1-yl]-5-methyl-5,7,8,9-tetrahydro-pyrimido[4,5-b][1,4]diazepin-6-one]: under 10000 nM.

As for `CC(=O)Nc1ccc(Nc2ncc3c(n2)N(C2CCCC2)CCC(=O)N3C)cc1C(F)(F)F` [compound 286, N-[4-(9-Cyclopentyl-5-methyl-6-oxo-6,7,8,9-tetrahydro-5H-pyrimido[4,5-b][1,4]diazepin-2-ylamino)-2-trifluoromethyl-phenyl]-acetamide], the IC50 was under 1000 nM. For the molecule `Cc1cc(Nc2ncc3c(n2)N(C2CCCC2)CCC(=O)N3C)ccc1N(S(C)(=O)=O)S(C)(=O)=O` [compound 288], the IC50 was under 100 nM. On to `CN1C(=O)CCN(C2CCCC2)c2nc(Nc3ccc(S(=O)(=O)NC4CCS(=O)(=O)C4)cc3)ncc21` (centres unmarked) [compound 325, 4-(9-Cyclopentyl-5-methyl-6-oxo-6,7,8,9-tetrahydro-5H-pyrimido[4,5-b][1,4]diazepin-2-ylamino)-N-(1,1-dioxo-tetrahydro-1lambda*6*- thiophen-3-yl)-benzenesulfonamide], for which the IC50 was under 1000 nM. Under `COc1ccc(N2CCC(=O)N(C)c3cnc(Nc4ccc(NC(=O)C5CC5)c(C)c4)nc32)cc1` [compound 327, Cyclopropanecarboxylic acid {4-[9-(4-methoxy-phenyl)-5-methyl-6-oxo-6,7,8,9-tetrahydro-5H-pyrimido[4,5-b][1,4]diazepin-2-ylamino]-2-methyl-phenyl}-amide] stands under 100 nM; under `CCN1C(=O)CCN(c2ccc(C)cc2)c2nc(Nc3ccc(NC(=O)C4CC4)c(C)c3)ncc21` [compound 328, Cyclopropanecarboxylic acid [4-(5-ethyl-6-oxo-9-p-tolyl-6,7,8,9-tetrahydro-5H-pyrimido[4,5-b][1,4]diazepin-2-ylamino)-2-methyl-phenyl]-amide], under 10000 nM. Under `Cc1cc(Nc2ncc3c(n2)N(c2c(F)cccc2F)CCC(=O)N3C)ccc1NC(=O)C1CC1` [compound 329, Cyclopropanecarboxylic acid {4-[9-(2,6-difluoro-phenyl)-5-methyl-6-oxo-6,7,8,9-tetrahydro-5H-pyrimido[4,5-b][1,4]diazepin-2-ylamino]-2-methyl-phenyl}amide] stands under 1000 nM; under `CCN1C(=O)CCN(c2ccc(OC)cc2)c2nc(Nc3ccc(NC(=O)C4CC4)c(C)c3)ncc21` [compound 330, Cyclopropanecarboxylic acid {4-[5-ethyl-9-(4-methoxy-phenyl)-6-oxo-6,7,8,9-tetrahydro-5H-pyrimido[4,5-b][1,4]diazepin-2-ylamino]-2-methyl-phenyl}-amide], under 10000 nM. Under `CCN1C(=O)CCN(c2ccc(C)cc2)c2nc(Nc3ccc4c(c3)CS(=O)(=O)C4)ncc21` [compound 331, 2-(2,2-Dioxo-2,3-dihydro-1H-2lambda*6*- benzo[c]thiophen-5-ylamino)-5-ethyl-9-p-tolyl-5,7,8,9-tetrahydro-pyrimido[4,5-b][1,4]diazepin-6-one] stands under 100 nM; under `COc1ccc(N2CCC(=O)N(C)c3cnc(Nc4ccc5c(c4)CS(=O)(=O)C5)nc32)cc1` [compound 332, 2-(2,2-Dioxo-2,3-dihydro-1H-2lambda*6*- benzo[c]thiophen-5-ylamino)-9-(4-methoxy-phenyl)-5-methyl-5,7,8,9-tetrahydro-pyrimido[4,5-b][1,4]diazepin-6-one], under 100 nM; under `CCN1C(=O)CCN(c2ccc(OC)cc2)c2nc(Nc3ccc4c(c3)CS(=O)(=O)C4)ncc21` [compound 333, 2-(2,2-Dioxo-2,3-dihydro-1H-2lambda*6*- benzo[c]thiophen-5-ylamino)-5-ethyl-9-(4-methoxy-phenyl)-5,7,8,9-tetrahydro-pyrimido[4,5-b][1,4]diazepin-6-one], under 100 nM. In the case of `CN1C(=O)CCN(c2ccc(C(C)(C)C)cc2)c2nc(Nc3ccc4c(c3)CS(=O)(=O)C4)ncc21` [compound 334, 9-(4-tert-Butyl-phenyl)-2-(2,2-dioxo-2,3-dihydro-1H-2lambda*6*-benzo[c]thiophen-5-ylamino)-5-methyl-5,7,8,9-tetrahydro-pyrimido[4,5-b][1,4]diazepin-6-one], the IC50 is under 10000 nM.

In general, IC50 refers to the concentration needed to halve the response being measured.
